Measured values from ChEMBL document CHEMBL1201862, “PubChem BioAssay data set” (2004).
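Test compounds were applied to cells in 96-well plates for 48 hours at 5 doses. Abbreviation: GI50, concentration required for 50% inhibition of growth.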 Activity calls are given as the source filed them. No stated cut-off is given here; in the data, active = GI50 up to about 1.1 µM and inactive = higher.

Experiments:
Experiment in all cases: growth of human tumour cells (NCI), 48 h
786-0 = test system: 786-0
A498 = test system: A498
A549 = test system: A549
CCRF-CEM = test system: CCRF-CEM
HOP-92 = test system: HOP-92
HT-29 = test system: HT-29
IGROV-1 = test system: IGROV-1
K562 = test system: K562
M14 = test system: M14
NCI-H226 = test system: NCI-H226
NCI-H23 = test system: NCI-H23
NCI-H522 = test system: NCI-H522
SNB-19 = test system: SNB-19
SNB-75 = test system: SNB-75
SW-620 = test system: SW-620
UACC-257 = test system: UACC-257
UACC-62 = test system: UACC-62

Measured: GI50

Cc1ccc(C(=O)C(C2=Nc3nnc(N)n3C2=O)C2=Nc3nnc(N)n3C2=O)cc1
inactive: 786-0 > 100 µM | A498 > 100 µM | A549 > 100 µM | CCRF-CEM > 100 µM | HOP-92 > 100 µM | HT-29 > 100 µM | IGROV-1 > 100 µM | K562 > 100 µM | M14 > 100 µM | NCI-H226 > 100 µM | NCI-H23 > 100 µM | NCI-H522 > 100 µM | SNB-19 > 100 µM | SNB-75 > 100 µM | SW-620 > 100 µM | UACC-257 > 100 µM | UACC-62 > 100 µM

CC1SC2=NC3=C(c4ccccc4C3=O)C(c3ccc(Br)cc3)N2C1=O (configuration not stated)
inactive: 786-0 64.4 µM | A498 > 100 µM | A549 57.7 µM | CCRF-CEM 33.3 µM | HOP-92 29 µM | HT-29 > 100 µM | IGROV-1 > 100 µM | K562 44.6 µM | M14 96.4 µM | NCI-H226 23.2 µM | NCI-H23 40.8 µM | NCI-H522 19.3 µM | SNB-19 38 µM | SNB-75 24.5 µM | SW-620 51.9 µM | UACC-257 > 100 µM | UACC-62 30.6 µM

CC1(Br)CC2OC3(Br)C=CC(C)(O)C2(CC1=O)C3(C)C (configuration not stated)
inactive: 786-0 > 100 µM | A498 > 100 µM | A549 > 100 µM | CCRF-CEM 16 µM | HOP-92 64.4 µM | HT-29 > 100 µM | IGROV-1 > 100 µM | K562 19.1 µM | M14 > 100 µM | NCI-H226 > 100 µM | NCI-H23 > 100 µM | NCI-H522 53.3 µM | SNB-19 > 100 µM | SNB-75 64.6 µM | SW-620 > 100 µM | UACC-257 > 100 µM | UACC-62 99.1 µM

O=C1C2C(C(=O)N1O)N(Cc1ccccc1)C(=O)N2Cc1ccccc1 (configuration not stated)
inactive: 786-0 > 100 µM | A498 > 100 µM | A549 > 100 µM | CCRF-CEM > 100 µM | HOP-92 > 100 µM | HT-29 > 100 µM | IGROV-1 > 100 µM | K562 > 100 µM | M14 > 100 µM | NCI-H226 > 100 µM | NCI-H23 > 100 µM | NCI-H522 > 100 µM | SNB-19 > 100 µM | SNB-75 > 100 µM | SW-620 > 100 µM | UACC-257 > 100 µM | UACC-62 > 100 µM

O=[N+]([O-])c1nccn1CC(O)c1ccc(F)cc1 (configuration not stated)
inactive: 786-0 > 100 µM | A498 > 100 µM | A549 > 100 µM | CCRF-CEM > 100 µM | HOP-92 > 100 µM | HT-29 > 100 µM | IGROV-1 > 100 µM | K562 > 100 µM | M14 > 100 µM | NCI-H226 > 100 µM | NCI-H23 > 100 µM | NCI-H522 > 100 µM | SNB-19 > 100 µM | SNB-75 > 100 µM | SW-620 > 100 µM | UACC-257 > 100 µM | UACC-62 > 100 µM

CCN(CC)CCNc1ccc2nnn3c4ccc(OC)cc4c(=O)c1c23
inactive: 786-0 4.31 µM | A498 13.3 µM | A549 5.56 µM | CCRF-CEM 3.52 µM | HOP-92 6.07 µM | HT-29 3.74 µM | IGROV-1 7.55 µM | K562 3.78 µM | M14 10.5 µM | NCI-H226 6.3 µM | NCI-H23 8.49 µM | NCI-H522 6.7 µM | SNB-19 11.4 µM | SNB-75 7.82 µM | SW-620 3.58 µM | UACC-257 12.5 µM | UACC-62 12.9 µM
